According to US5776427A, “Methods for targeting the vasculature of solid tumors” (Board of Regents, The University of Texas System, priority 1995, dated 1998):
“Also recorded” adds a separate entry of the source. Where a name gives a salt, the structure may show the parent alone.

System: Ia^d on colonic endothelium and epithelium
Experiment: Ia^d expression and anti-Ia^d antibody localization in the gut of BALB/c nu/nu mice given oral tetracycline-HCl (indirect immunoperoxidase staining)
Format: in vivo, mouse
Experimental: BALB/c nu/nu mice were purchased from Simonsen (Gilroy, Calif.). SCID mice were from the UT Southwestern Medical Center breeding colony. All animals were maintained in microisolation units on sterilized food and water. Where indicated, tetracycline-HCI (Vedeo, St. Joseph, Mo.) was added to drinking water to a final concentration of 1.1 mg/ml (Harkness et al., 1983). Both strains carry the H-2^d haplotype.
For the establishment of solid tumors, a total of 2×10^7 C1300 or C1300 (Muγ) cells, or a mixture of the two, in 200 μl MEM-30% FCS were injected subcutaneously into the right anterior flank of BALB/c nu/nu or SCID mice. Tumor diameters were measured at regular intervals and the animals were euthanized after 16 days (rapidly-growing tumors) or 20 days (slowly-growing tumors). Tumors and normal tissues were excised immediately and snap-frozen over liquid nitrogen. Normal tissues were also harvested from non-tumor-bearing animals. Antibody localization studies were performed in animals bearing 1 cm subcutaneous tumors induced by injection of C1300 and C1300 (Muγ) in the ratio 7:3. One hundred micrograms of unconjugated M5/114 or CAMPATH-2 antibodies or 100 μg biotinylated 11-4.1 or WT-1 antibodies in 100 μl PBS were injected intravenously. At various times thereafter the animals were euthanized and their circulation was flushed with PBS for 5 minutes before removal and freezing of tumors and normal tissues as before. […] frozen sections were cut on a Tissuetek 2 cryostat (Baxter) and air-dried for 2 hours at room temperature. Slides were stored at -20° C. for up to 3 months before assay.
Indirect immunoperoxidase staining for rat IgG was adapted from a method described by Billington et al. (1986). Sections were allowed to return to room temperature, air dried for 30 minutes and fixed in acetone for 15 minutes. After rehydration in PBS for 5 minutes, sections were incubated in a humidified chamber for 45-60 minutes with primary antibodies, diluted optimally in PBS-0.2% BSA, (PBS-BSA). […]

SMILES: CN(C)[C@@H]1C(O)=C(C(N)=O)C(=O)[C@@]2(O)C(O)=C3C(=O)c4c(O)cccc4[C@@](C)(O)[C@H]3C[C@@H]12 [tetracycline-Hcl, tetracycline-HCI]
- localization of intravenously-injected anti-Ia^d antibody to colonic endothelial cells (oral administration before antibody injection): abolished localization
- Ia^d expression in the colon and elsewhere in the gut (oral, 1-3 weeks): progressive diminution; also recorded: diminished Ia^d expression
- numbers of intravillous CD3-positive cells (oral, 1-3 weeks): dramatic decrease
